Columns and labels:
[1] = tested on: LNCaP cells; assay: Cell cycle analysis of LNCaP cells treated with PI3K inhibitor; type: cell-based
Description: FIG. 5. IGFBP2 plays a functional role in the PI3K-Akt pathway. (A) Cell cycle analysis of vector or IGFBP2 infected LNCaP cells treated with PI3K inhibitor (LY294002). (B and C) Clonagenic assay on wild-type or IGFBP2 knockout mouse embryonic fibroblasts with or without constitutive-active Akt expression (B), or myc expression (C). To examine if IGFBP2 is involved in the PI3K signaling, a pharmacological approach was employed. Consistent with the result in FIG. 3B, LNCaP cells have a high basal level of Akt activation. […] To examine if IGFBP2 plays a biological role for Akt function, clonogenic assay was performed using IGFBP2 knockout MEF (23). While Akt promoted colony formation in IGFBP2 wild type MEF (FIG. 5B, top and left panel), deletion of IGFBP2 abrogated this promoting activity. The requirement of IGFBP2 is specific to Akt because c-myc promoted colony formation in both cells (FIG. 5C). The inability of Akt to promote colony formation in IGFBP2 knockout MEF can be rescued by re-introduction of IGFBP2 (FIG. 5B).

[2] = tested on: IGFBP2; conditions: patients treated (ref 28); cited from earlier work
[3] = tested on: PTEN mutated tumors; conditions: cited from earlier work

With `O=c1cc(N2CCOCC2)oc2c(-c3ccccc3)cccc12` [LY294002] the “decrease of the percentage of cells in S phase” value [1] was 40%.
For “IGF-l: insulin-like growth factor 1, a stimulus for Akt activation”, the “level of IGFBP2 in serum” value [2] is given as “elevated level”.
In the case of `CO[C@H]1C[C@@H]2CC[C@@H](C)[C@@](O)(O2)C(=O)C(=O)N2CCCC[C@H]2C(=O)O[C@H]([C@H](C)C[C@@H]2CC[C@@H](OC(=O)C(C)(CO)CO)[C@H](OC)C2)CC(=O)[C@H](C)/C=C(\C)[C@@H](O)[C@@H](OC)C(=O)[C@H](C)C[C@H](C)/C=C/C=C/C=C/1C` [CCI-779], the “inhibition of PTEN mutated cancer cells” value ([3]; PTEN mutated cancer cells) is given as “effectively inhibits” and the “sensitivity of tumors with PTEN mutations” value ([3]; tumors with PTEN mutations (refs 22, 27)) is given as “more sensitive”.
